Results taken from patent publication US6780891B2, “Tramadol analogs and uses thereof” (Sepracor Inc., priority 2001, dated 2004).
pIC50: −log10 of the molar value. Several values for one entry are separate records, joined by “and”; a condition that tells them apart may be missing. Equal entries are not always repeated. Structures can show the parent of a compound that is named as a salt. Where two headings read alike, the source gives them in different places.

How the values were obtained:
μ receptor [1] = molecular target: T1, μ receptor (Rattus norvegicus, UniProt P33535); test: biochemical; settings: IC50, opioid binding, rat cerebral cortex, [3H]DAMGO 1 nM, 60 minutes/22° C.
T1 sequence (P33535 whole entry): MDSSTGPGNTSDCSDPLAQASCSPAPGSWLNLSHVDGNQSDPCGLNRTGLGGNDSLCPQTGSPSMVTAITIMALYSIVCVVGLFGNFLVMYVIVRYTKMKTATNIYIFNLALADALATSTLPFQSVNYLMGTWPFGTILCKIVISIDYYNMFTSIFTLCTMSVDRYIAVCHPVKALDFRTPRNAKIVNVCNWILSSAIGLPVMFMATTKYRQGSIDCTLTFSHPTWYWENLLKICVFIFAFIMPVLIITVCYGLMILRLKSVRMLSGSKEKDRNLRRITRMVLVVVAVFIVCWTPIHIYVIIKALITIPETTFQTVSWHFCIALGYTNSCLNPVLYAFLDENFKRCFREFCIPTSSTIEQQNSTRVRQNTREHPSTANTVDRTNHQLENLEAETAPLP

κ receptor = molecular target: T2, κ receptor (Cavia porcellus, UniProt P41144); test: κ opioid receptor binding, [3H]U 69593; settings: guinea-pig cerebellum, [3H]U 69593 0.7 nM, 80 minutes/22° C.
T2 construct: Following incubation, the membranes were rapidly filtered under vacuum through glass fiber filters; from tissue
T2 sequence (P41144 whole entry): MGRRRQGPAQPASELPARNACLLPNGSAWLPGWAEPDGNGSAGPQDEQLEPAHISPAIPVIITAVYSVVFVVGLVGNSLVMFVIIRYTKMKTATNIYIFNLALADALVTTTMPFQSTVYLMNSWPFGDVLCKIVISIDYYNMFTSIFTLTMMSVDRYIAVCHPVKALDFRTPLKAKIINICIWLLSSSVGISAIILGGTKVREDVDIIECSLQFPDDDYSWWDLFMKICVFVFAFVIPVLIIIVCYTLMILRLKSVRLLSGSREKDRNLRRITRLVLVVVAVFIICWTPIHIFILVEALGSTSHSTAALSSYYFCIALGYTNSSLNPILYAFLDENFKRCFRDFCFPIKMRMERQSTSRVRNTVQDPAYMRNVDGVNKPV

μ receptor [2] = molecular target: T1, μ receptor; settings: for Affinity for the μ receptor compared with ODMT and racemic tramadol: comparison in words of Table 1 values
δ receptor = molecular target: T3, δ receptor (Cavia porcellus, UniProt A0A286XTF2); test: δ opioid receptor binding, [3H]DPDPE; set-up: species or system Guinea-pig
T3 construct: Following incubation, the membranes were rapidly filtered under vacuum through glass fiber filters; from tissue
T3 sequence (A0A286XTF2 1-366): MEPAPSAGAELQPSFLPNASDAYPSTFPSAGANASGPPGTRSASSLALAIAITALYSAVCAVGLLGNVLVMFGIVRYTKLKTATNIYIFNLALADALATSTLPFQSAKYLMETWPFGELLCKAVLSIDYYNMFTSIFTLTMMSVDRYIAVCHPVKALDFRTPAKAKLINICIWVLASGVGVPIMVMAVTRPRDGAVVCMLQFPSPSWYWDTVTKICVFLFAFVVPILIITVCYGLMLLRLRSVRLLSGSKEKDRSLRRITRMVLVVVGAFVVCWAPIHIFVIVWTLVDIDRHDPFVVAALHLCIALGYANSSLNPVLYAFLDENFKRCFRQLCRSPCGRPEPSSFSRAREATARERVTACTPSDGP

NE uptake = format: biochemical, Rat; settings: for pIC50: read-out: IC50, functional monoamine uptake, NE
5-HT uptake = test: Functional monoamine uptake: 5-HT uptake, rat brain synaptosomes; format: biochemical; settings: for pIC50: rat brain synaptosomes, [3H]5-HT, 15 min./37° C.; for Blocking 5-HT uptake compared with racemic tramadol and ODMT: comparison in words of Table 1 values
DA uptake = test: Functional monoamine uptake: DA uptake, rat corpora striatum synaptosomes; format: biochemical; settings: [3H]DA, 15 min./37° C.
Description: Radioactivity was determined with a scintillation counter (Topcount, Packard) using a liquid scintillation cocktail (Microscint 0, Packard).
These parameters were obtained by Hill equation curve fitting.

[3] = rat hypothalamus, [3H]NE, 20 min./37° C.

Molecule	pIC50 (μ receptor [1])	pIC50 (κ receptor)	pIC50 (δ receptor)	pIC50 (NE uptake; [3])	pIC50 (5-HT uptake)	pIC50 (NE uptake)	other results
COC1(c2cccc(O)c2)CCCCC1CN(C)C (racemic) [(R,R/S,S)-ODMOMT, (+/−)-cis-Desmethylmethyltramadol]	7.25	6.10	5.31	6.92	5.59	–	Affinity for the μ receptor compared with ODMT and racemic tramadol (μ receptor [2]): comparable to the corresponding enantiomer/racemate of ODMT, and much greater than that of racemic tramadol; Blocking NE uptake compared with racemic tramadol or (S,S)-ODMT (NE uptake): more effective at blocking NE uptake than racemic tramadol or (S,S)-ODMT
CN(C)CC1CCCCC1(O)c1cccc(O)c1 (racemic) [(R,R/S,S)-ODMT, O-desmethyltramadol, reference compound]	–	5.50	5.11	–	5.40	–	–
COc1cccc(C2(OC)CCCCC2CN(C)C)c1 (racemic) [(R,R/S,S)-OMT, O-Methyltramadol]	5.10	–	–	–	6.26	7.54	Blocking NE uptake compared with racemic tramadol or (S,S)-ODMT (NE uptake): more effective at blocking NE uptake than racemic tramadol or (S,S)-ODMT; Blocking 5-HT uptake compared with racemic tramadol and ODMT (5-HT uptake): more effective at blocking at 5-HT uptake than racemic tramadol, (R,R)- or (S,S)-ODMT or racemic ODMT
COc1cccc(C2(O)CCCCC2CN(C)C)c1 (racemic) [(R,R/S,S)-Tramadol, reference compound]	5.08 and 5.12	–	–	–	–	–	–
COc1cccc([C@@]2(OC)CCCC[C@H]2CN(C)C)c1.O=C(O)/C=C/C(=O)O (relative stereo) [(R,S/S,R)-OMT, (+/−)-trans-O-Methyltramadol Fumaric Acid]	–	–	–	6.25	6.54	–	pIC50 (μ receptor [2]; read-out: IC50, opioid binding, μ, rat cerebral cortex, [3H]DAMGO 1 nM, 60 minutes/22° C.): 5.48; Blocking 5-HT uptake compared with racemic tramadol and ODMT (5-HT uptake): more effective at blocking at 5-HT uptake than racemic tramadol, (R,R)- or (S,S)-ODMT or racemic ODMT; pIC50 (DA uptake): 5.12
CN(C)CC1CCCCC1(O)c1cccc(O)c1 (single isomer, unassigned) [(R,R)-ODMT, O-desmethyltramadol, reference compound]	–	5.79	5.34	–	5.48	–	–
CN(C)CC1CCCCC1(O)c1cccc(O)c1 (single isomer, unassigned) [(S,S)-ODMT, HCl, reference compound]	–	–	–	5.15	–	–	pIC50 (5-HT uptake; HCl): 5.36
COC1(c2cccc(O)c2)CCCCC1CN(C)C [(R,R)-ODMOMT, (1R,2R)-(+)-Desmethylmethyltramadol]	7.52	6.37	5.55	5.17	5.68	–	Affinity for the μ receptor compared with ODMT and racemic tramadol (μ receptor [2]): comparable to the corresponding enantiomer/racemate of ODMT, and much greater than that of racemic tramadol
COc1cccc(C2(OC)CCCCC2CN(C)C)c1 [(R,R)-OMT, (R,R)-(+)-O-Methyltramadol]	5.12	–	–	–	6.19	5.40	Blocking 5-HT uptake compared with racemic tramadol and ODMT (5-HT uptake): more effective at blocking at 5-HT uptake than racemic tramadol, (R,R)- or (S,S)-ODMT or racemic ODMT
CO[C@@]1(c2cccc(O)c2)CCCC[C@H]1CN(C)C [(S,S)-ODMOMT, (1S,2S)-(−)-Desmethylmethyltramadol]	6.25	5.61	–	7.29	5.30	–	Affinity for the μ receptor compared with ODMT and racemic tramadol (μ receptor [2]): comparable to the corresponding enantiomer/racemate of ODMT, and much greater than that of racemic tramadol; Blocking NE uptake compared with racemic tramadol or (S,S)-ODMT (NE uptake): more effective at blocking NE uptake than racemic tramadol or (S,S)-ODMT
CNCCCC1c2ccccc2C=Cc2ccccc21 [Protriptyline, reference compound]	–	–	–	–	–	7.40 and 7.59	–
(+/−)-trans-O-Methyldidesmethyltramadol HCl [(R,S/S,R)-NDMOMT]	–	–	–	–	4.80	–	–
O-methyl tramadol [(S,S)-OMT]	–	–	–	–	–	4.80	–
